Source: patent US4690925A, “(2-Oxo-1,2,3,5-tetrahydroimidazo-[2,1-B]quinazolinyl) oxyalkylamides properties having phosphodiosterase inhibiting” (Syntex (U.S.A.) Inc., priority 1985, dated 1987)

Legend:
[1] = target: T1, Human platelet cyclic AMP phosphodiesterase (Homo sapiens, UniProt Q14432); assay: Cyclic AMP phosphodiesterase assay, human platelet enzyme (Table I); type: biochemical; conditions: for IC50: 1 μM cyclic AMP as substrate, soluble enzyme from human platelets, read-out: Human Platelet IC50 (inhibition of cyclic AMP phosphodiesterase); for Relative Potency: relative to theophylline, which is assigned a value of 1 on human platelet phosphodiesterase
T1 construct: from tissue; host or cells: human platelets from donors, soluble fraction after freeze-thaw and hypotonic lysis
Experimental: (§1) The inhibition of cyclic AMP phosphodiesterase activity by the subject compounds was assayed by the method of Filburn and Karn, Analyt. Biochem., 52: 505-516 (1973), using 1 μM cyclic AMP as the substrate. Human platelet cyclic AMP phosphodiesterase was obtained from human donors. Platelets were isolated and washed by centrifugation, the membranes ruptured by a sequential freeze-thaw procedure and hypotonic lysis and the soluble enzyme isolated by high speed centrifugation. The enzyme was stored in aliquots at -20° C.
(§2) This table contains the IC50 values for human platelet phosphodiesterase and IC25 values for rat heart phosphodiesterase.

Soluble dog heart PDE = assay: Cyclic AMP phosphodiesterase inhibition, soluble dog heart PDE (Table I); type: biochemical; conditions: soluble dog heart PDE (footnote a)
Experimental: as §1, §2
^a Soluble dog heart PDE

Lewis Lung Carcinoma = assay: Antimetastatic activity against Lewis Lung Carcinoma (spontaneous metastases) (Table III); type: in vivo, mice (female, C57B1/6); conditions: 5 mg/kg oral, every other day, 20 to 21 days
Experimental: Mice (female, C57B1/6, 16-18 g) were inoculated subcutaneously between the inguinal and axillary areas with 0.2 ml of a freshly prepared tumor brei. Control mice were treated with vehicle. Other mice were treated orally with test compound in suspension in 0.5% carboxymethylcellulose (CMC). Treatments were initiated one day after tumor implanation, and continued every other day throughout the experiment. 20 to 21 days after implantation of the tumor, mice were sacrificed, the primary tumor was weighed, and the number of lung metastases was determined by counting under a dissecting microscope.

Soluble rat heart PDE = assay: Cyclic AMP phosphodiesterase inhibition, soluble rat heart PDE (Table I); type: biochemical; conditions: soluble rat heart PDE (footnote b)
Experimental: as §1, §2
^b Soluble rat heart PDE

Mongrel dogs = assay: Inotropic activity in anesthetized mongrel dogs (Table II); type: in vivo, dog; conditions: 1 mg/kg i.v., suspended in carboxymethylcellulose, vagotomized dogs
Experimental: Mongrel dogs were anesthetized intravenously with 35 mg/kg sodium pentobarbital and supplemented as needed. Blood pressure was measured with a Statham pressure transducer via a cannula inserted from a femoral artery into the abdominal aorta. Heart rate was recorded by a cardiotachometer from a lead II electrocardiogram. Right ventricular contractile force was recorded from a Walton-Brodie strain gauge sutured to the right ventricle following a midsternal thoracotomy. A Harvard respirator was used to ventilate the dogs with room air through an endotracheal tube. Each dog was bilaterally vagotomized. Following a midline laparotomy, a cannula was sutured into the duodenum for intraduodenal administration of test compound. A femoral vein was cannulated for administration of isoproterenol. All data were recorded on a Beckman R611 Dynograph.
To assess the responsiveness of each dog, isoproterenol was given intravenously at half-log interval doses from 0.007 to 6.67 μg/kg. The test compound was then administered intravenously at 1 mg/kg.

T1 sequence (Q14432 whole entry): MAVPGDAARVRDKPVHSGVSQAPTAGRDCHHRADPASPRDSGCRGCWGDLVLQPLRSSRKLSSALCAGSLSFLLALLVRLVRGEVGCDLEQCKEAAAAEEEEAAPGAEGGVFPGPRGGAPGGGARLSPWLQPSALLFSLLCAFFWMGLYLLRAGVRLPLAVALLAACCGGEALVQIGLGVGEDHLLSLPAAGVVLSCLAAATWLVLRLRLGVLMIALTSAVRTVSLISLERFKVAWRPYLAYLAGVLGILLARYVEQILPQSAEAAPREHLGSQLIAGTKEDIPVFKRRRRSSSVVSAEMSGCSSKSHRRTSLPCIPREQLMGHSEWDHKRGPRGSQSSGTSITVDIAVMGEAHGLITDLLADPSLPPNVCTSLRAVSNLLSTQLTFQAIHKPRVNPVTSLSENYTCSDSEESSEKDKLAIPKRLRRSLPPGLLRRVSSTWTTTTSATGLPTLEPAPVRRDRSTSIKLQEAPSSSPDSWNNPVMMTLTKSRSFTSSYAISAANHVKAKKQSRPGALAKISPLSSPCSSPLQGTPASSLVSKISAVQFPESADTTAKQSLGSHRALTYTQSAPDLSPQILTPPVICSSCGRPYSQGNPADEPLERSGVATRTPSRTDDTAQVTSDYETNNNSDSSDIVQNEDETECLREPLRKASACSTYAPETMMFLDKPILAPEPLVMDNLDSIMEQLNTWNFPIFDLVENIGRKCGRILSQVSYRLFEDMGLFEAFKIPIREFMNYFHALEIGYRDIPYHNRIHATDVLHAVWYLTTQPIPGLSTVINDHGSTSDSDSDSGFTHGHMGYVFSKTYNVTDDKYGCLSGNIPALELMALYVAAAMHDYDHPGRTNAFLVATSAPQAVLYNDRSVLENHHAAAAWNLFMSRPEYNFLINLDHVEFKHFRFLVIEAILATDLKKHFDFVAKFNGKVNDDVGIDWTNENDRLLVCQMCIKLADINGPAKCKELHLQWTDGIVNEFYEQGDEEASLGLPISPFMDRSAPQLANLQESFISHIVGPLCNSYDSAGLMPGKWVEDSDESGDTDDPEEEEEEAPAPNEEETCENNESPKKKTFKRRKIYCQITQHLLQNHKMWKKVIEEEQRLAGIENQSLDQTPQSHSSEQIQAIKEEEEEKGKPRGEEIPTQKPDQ

SMILES	IC50 [1] [nM]	Relative Potency [1]	Heart IC25 (inhibition of cyclic AMP phosphodiesterase), soluble dog heart PDE (Soluble dog heart PDE) [nM]	Number of Pulmonary Metastases, Range (Lewis Lung Carcinoma; control range 0-29)	Number of Pulmonary Metastases, Median (Lewis Lung Carcinoma; p < 0.05, control median 5)	Heart IC25 (inhibition of cyclic AMP phosphodiesterase), soluble rat heart PDE (Soluble rat heart PDE) [nM]	Blood Pressure, peak effect (Mongrel dogs)	Heart Rate, peak effect (Mongrel dogs)	Rt. Ventricular Contractile Force, peak effect (Mongrel dogs)
NC(=O)CN(C(=O)CCCOc1ccc2c(c1)CN1CC(=O)NC1=N2)C1CCCCC1 [2-(N-cyclohexyl-4-(2-oxo-1,2,3,5-tetrahydroimidazo[2,1-b]quinazolin-7-yl)oxybutyramidyl)acetamide]	11	24,500	100	–	–	–	–	–	–
O=C(O)CN(C(=O)CCCOc1ccc2c(c1)CN1CC(=O)NC1=N2)C1CCCCC1 [2-(N-cyclohexyl-4-(2-oxo-1,2,3,5-tetrahydroimidazo[2,1-b]quinazolin-7-yl)oxybutyramidyl)acetic acid]	5	54,000	–	0-11	0	100	32 % of Max. Isoproterenol	30 % of Max. Isoproterenol	33 % of Max. Isoproterenol
COC(=O)CN(C(=O)CCCOc1ccc2c(c1)CN1CC(=O)NC1=N2)C1CCCCC1 [Methyl 2-(N-cyclohexyl-4-(2-oxo-1,2,3,5-tetrahydroimidazo[2,1-b]quinazolin-7-yl)oxybutyramidyl)acetate]	2	135,000	10.0	–	–	–	–	–	–
